US8946477B2, “Solid forms of an N-(phenylmethyl) propanamide derivative and processes of preparation” (Medichem, S.A., priority 2009, dated 2015)

Experiment: Stability studies: storage under standard conditions, then XRD analysis
Assay type: physicochemical
Conditions: for XRD after storage (polymorphic form): stored at room temperature, air atmosphere

COC[C@@H](NC(C)=O)C(=O)NCc1ccccc1 [Example 41, (2R)-2-(acetylamino)-3-methoxy-N-(phenylmethyl)propanamide]
XRD after storage (polymorphic form) (normal pressure, storing time 295 days): Form III

COC[C@@H](NC(C)=O)C(=O)NCc1ccccc1 [amorphous lacosamide, (2R)-2-(acetylamino)-3-methoxy-N-(phenylmethyl)propanamide]
stability on storage (ambient conditions and air atmosphere for at least 250 days, more typically at least 300 days): substantially stable | XRD after storage (FIG. 13 vs FIG. 12) (room temperature, normal pressure, air atmosphere for 304 days (Example 63)): retention of amorphous Form

COC[C@@H](NC(C)=O)C(=O)NCc1ccccc1 [lacosamide Form III, (2R)-2-(acetylamino)-3-methoxy-N-(phenylmethyl)propanamide]
polymorphic stability on storage (ambient conditions and air atmosphere for at least 250 days, more typically at least 290 days): substantially no polymorphic interconversion is observed

COC[C@@H](NC(C)=O)C(=O)NCc1ccccc1 [Example 42, (2R)-2-(acetylamino)-3-methoxy-N-(phenylmethyl)propanamide]
XRD after storage (polymorphic form) (normal pressure, storing time 290 days): Form III
